# According to US12558393B2, “Compositions and methods of BDNF activation” (VDF Futureceuticals, Inc., priority 2013, dated 2026):
# System: BDNF plasma levels
# Assay: Plasma BDNF by ELISA in healthy fasted subjects after a single oral dose
# Type: in vivo, human
# Conditions: 50 mg single dose, five healthy subjects (FIG. 2)
smiles,measurement,value
O=C(/C=C/c1ccc(O)c(O)c1)O[C@@H]1C[C@](O)(C(=O)O)C[C@@H](O)[C@H]1O [chlorogenic acid],"blood level of BDNF, increase",did not increase blood level of BDNF in a statistically significant manner
